Columns and labels:
mouse EP1 receptor = mouse EP1 receptor (Mus musculus (Mouse), UniProt P35375); assay: Measurement of EP1 Antagonist Activity (inhibition of PGE2-induced increase in intracellular calcium); format: cell-based; details: cells expressing mouse EP1 receptor; increase in intracellular calcium induced by PGE2 (100 nM)
Method: The cells expressing mouse EP1 receptor were seeded at 10^4 cells/well in 96-well plates and cultured for 2 days with 10% Fetal Bovine Serum (FBS)/alpha Modified Eagle Medium (αMEM) in the incubator (37° C., 5% CO2). The cells were washed with phosphate buffer, and load buffer (10% FBS/αMEM containing Fura2/AM (5 μM), indomethacin (20 μM) and probenecid (2.5 mM)) was then added to each well and cells were left standing for 1 hour. Load buffer of each well was discarded and assay buffer (Hank's Balanced Salt Solution (HBSS) containing indomethacin (2.5 mM), probenecid (2.5 mM), HEPES-NaOH (10 mM) and 0.1% (w/v) Bovine Serum Albumin (BSA)) was added to each well and plates were left at room temperature in a dark room for 1 hour. Afterwards, compounds of the present invention (10 μL) or PGE2 (10 μL) prepared with assay buffer was added to each well and intracellular calcium concentrations were measured using a Fluorescence Drug Screening System (FDSS-4000, Hamamatsu Photonics K.K.). Changes in ratio of fluorescent intensity at 500 nm in cells exposed to alternating 2 excitation wavelengths was monitored as changes in intracellular calcium concentrations.
IC50 values were calculated based on the response inhibition rate of increase in intracellular calcium concentrations induced by PGE2 (100 nM) and was used as an index of EP1 antagonistic activity.

male cynomolgus monkeys = assay: Animal model of dysuria induced by intravesical infusion of ATP (singlecystometry); format: in vivo, cynomolgus monkey; details: ATP solution intravesical, compound A 0.1 mg/kg subcutaneous
Method: After administration of ketamine hydrochloride anesthesia (15 to 20 mg/kg), male cynomolgus monkeys (11 years, 3 male (symbol “∘” in the FIG. 1 and FIG. 2 represents individual one.)) were fixed onto a stereotaxic operating table. The top of the bladder catheter was connected to a pressure transducer via a three-way stopcock, and intravesical pressure was recorded using a distortion amplifier and a recorder. The other end of the three-way stopcock were connected to a syringe for intravesical infusion to which an infusion pump was connected and a extension tube which satisfied physiological saline to remove residual urine from bladder.
The physiological saline was infused into the bladder at an infusion rate of 1.5 to 7.0 mL/min, and immediately after completion of voiding, the intravesical infusion was terminated and residual urine was removed (hereinafter, the above procedures is assumed singlecystometry.) and the procedures were repeated. […] Urinary flow rate (voided volume per voiding time (mL/sec)) and residual urine rate (residual urine volume per voided volume (%)) were calculated for each of the singlecystometry before ATP perfusion, after ATP perfusion and after ATP perfusion conducted after administration of the compound A. The results are shown in FIG. 1 and FIG. 2.

mouse EP1 receptor, sequence (P35375 whole entry): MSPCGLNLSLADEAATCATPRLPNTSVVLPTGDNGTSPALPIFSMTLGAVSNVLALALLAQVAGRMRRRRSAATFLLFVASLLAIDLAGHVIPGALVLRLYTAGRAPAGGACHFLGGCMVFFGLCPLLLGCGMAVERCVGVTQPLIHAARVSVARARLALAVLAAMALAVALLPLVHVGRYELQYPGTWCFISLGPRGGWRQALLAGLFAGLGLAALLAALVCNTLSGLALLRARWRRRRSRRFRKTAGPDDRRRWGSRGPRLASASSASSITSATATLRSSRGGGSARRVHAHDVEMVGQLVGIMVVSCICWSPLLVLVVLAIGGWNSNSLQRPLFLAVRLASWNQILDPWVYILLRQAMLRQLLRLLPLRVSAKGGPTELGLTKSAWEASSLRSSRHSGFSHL

IC50 (mouse EP1 receptor) [nM]	SMILES	Urinary flow rate (voided volume per voiding time) (male cynomolgus monkeys; FIG. 1)	Residual urine rate (residual urine volume per voided volume) (male cynomolgus monkeys; FIG. 2)
7.1	Cc1csc(S(=O)(=O)N(c2cc(C)c(C)cc2OCc2ccc(-c3noc(=O)[nH]3)cc2)C(C)C)n1 [Compound L, N-[4,5-dimethyl-2-[4-(5-oxo-1,2,4-oxadiazol-3-yl)phenylmethyloxy]phenyl]-N-isopropyl-(4-methyl-2-thiazolyl)sulfonylamide]		
21	Cc1ccc(S(=O)(=O)N(CC(C)C)c2cc3c(cc2OCc2ccc(C=CC(=O)O)cc2)CCC3)o1 [Compound E, 4-[6-[N-isobutyl-N-(5-methyl-2-furylsulfonyl)amino]indan-5-yloxymethyl]cinnamic acid]		
6.9	Cc1cc(C(=O)O)ccc1COc1cc2c(cc1N(CC(C)C)S(=O)(=O)c1nccs1)CCC2 [Compound A, 3-methyl-4-[6-[N-isobutyl-N-(2-thiazolylsulfonyl)amino]indan-5-yloxymethyl]benzoic acid]	recovered the urinary flow rate decreased by ATP	decreased the residual urine rate
4.9	Cc1csc(S(=O)(=O)N(c2cc(C)c(Cl)cc2OCc2ccc(-c3nnn[nH]3)cc2)C(C)C)n1 [Compound J, N-[4-chloro-5-methyl-2-[4-(5-tetrazolyl)phenylmethyloxy]phenyl]-N-isopropyl-(4-methyl-2-thiazolyl)sulfonylamide]		
3.7	Cc1cc(OCc2ccc(-c3nnn[nH]3)cc2Cl)c(N(C(C)C)S(=O)(=O)c2cccnc2)cc1C [Compound K, N-[4,5-dimethyl-2-[2-chloro-4-(5-tetrazolyl)phenylmethyloxy]phenyl]-N-isopropyl-3-pyridylsulfonylamide]		
25	Cc1csc(S(=O)(=O)N(CC(C)C)c2ccc(C(F)(F)F)cc2OCc2ccc(C=CC(=O)O)cc2)n1 [Compound G, 4-[2-[N-isobutyl-N-(4-methyl-2-thiazolylsulfonyl)amino]-5-trifluoromethylphenoxymethyl]cinnamic acid]		
9.2	Cc1cc(OCc2ccc(C=CC(=O)O)cc2C)c(N(CC(C)C)S(=O)(=O)c2cccnc2)cc1C [Compound I, 3-methyl-4-[2-[N-isobutyl-N-(3-pyridylsulfonyl)amino]-4,5-dimethylphenoxymethyl]cinnamic acid]		

Source: patent US9181187B2, “Therapeutic agent for urinary excretion disorder” (ONO PHARMACEUTICAL CO., LTD., priority 2007, dated 2015)
